Here are results for four molecules from patent US20120258938A1, “Enzymatic Production or Chemical Synthesis and Uses for 5,7-Dienes and UVB Conversion Products Thereof” (priority 2008, published 2012).

Data set [1] deals with HaCaT keratinocytes. Put plainly: [3H]-thymidine DNA synthesis in HaCaT keratinocytes. It counts as cell-based, human. Here is the method: HaCaT keratinocytes were plated in 96-well plates at the density of 10,000 cells/well in DMEM (Cellgro, Herndon Va.) containing 5% charcoal treated fetal bovine serum (Hyclone, Logan, Utah), 1% antibiotic solution (PSA, Sigma, St. Louis, […].). Next day, media were changed and vehicle (ethanol) or secosteroids added. Cells were incubated with compounds for 48 hours. [^3H]-thymidine (Amersham Biosciences, Picataway, N.Y.) was added to the final concentration of 1 μCi/mL medium for last 12 hours of incubation. Media were then discarded, cells detached with trypsin and harvested on a glass fiber filter (Packard, Meriden, Calif.). Radioactivity was measured with a beta counter (Direct Beta-Counter Matrix 9600; Packard).
(§1) To measure DNA synthesis, keratinocytes, melanoma or prostate cancer cells were plated in 96-well plates. After overnight incubation tested compounds were added to the medium to achieve final concentrations 10^−7-10^−10 [M]. 100 μl of medium per well containing vitamin D3 compound was added to the cells. After 36 hours of incubation [3H]-thymidine (specific activity 88.0 Ci/mmol; Amersham Biosciences, Picataway, N.Y., USA) was added at 1 μCi/mL medium. After 12 hours, media were discarded, cells detached with trypsin and harvested on a glass fiber filter (Packard, Meriden, Calif., USA). 3H-radioactivity was measured with a beta counter (Direct Beta-Counter Matrix 9600; Packard).
HaCaT keratinocytes were plated out in 24-well plates, 50,000 cells/well. […] After 4 h media were discarded, cells washed with cold phosphate-buffered saline and incubated in 10% trichloroacetic acid for 30 min. Cells were washed again with phosphate-buffered saline, 100 μl 1.0 M NaOH was added to each well and plates incubated for 30 min at 30° C. The supernatant was collected and the ^3H-radioactivity measured by scintillation counting using a Direct Beta-Counter Matrix 9600 (Packard). The [^3H]-thymidine incorporation into DNA was measured separately for each well and the results entered into the calculation as the mean of 6 wells for each condition in a series of six experiments (n=36). Data were analyzed with GraphPad Prizm Version 4.0 (GraphPad Software Inc., San Diego, Calif., USA) using t tests. Differences were considered significant when p<0.05.

Data set [2] relates to HaCaT keratinocytes. It counts as cell-based, human. Here is the method: The cells were seeded in 96-well plate in F10 medium. Following 48 to 96 h incubation cells were fixed with 10% trichloroacetic acid, washed and then incubated with 0.04% sulforhodamine B (in 1% acetic acid) for 30 min. Following second wash with 1% acetic acid, dye incorporated into the cells was solubilized in 10 mM Tris by shaking for 30 min and the absorbance was measured at 570 nm.
Cells are treated with the test compound, washed, fixed and stained with the Sulphorhodamine B dye (SRB). The incorporated dye is then liberated from the cells in a tris-base solution. An increase or decrease in the number of cells (total biomass) results in a concomitant change in the amount of dye incorporated by the cells in the culture. Cells were seeded in growth medium at 10,000 per well in 96-well plates. After 12 h of culture the medium was changed to 5% charcoal-treated serum and cells cultured for a further 47 h with serial dilutions of 1α,20-dihydroxycholecalciferol (diluted as for as for thymidine incorporation). […] was then added to a final concentration of 20% from a 50% stock and cells incubated for 1 h. Cells were stained with SRB 0.4% (Sigma), washed with 1% acetic acid and dried. Trsi-HCl was added and the absorbance measured at 565 nm. The absorbance of blank medium only, was also measured also at 690 nm.

Another data set relates to CYP24. Put plainly: Real-time RT PCR CYP24 mRNA in HaCaT keratinocytes. In kind it is cell-based, human. Here is the method:
RNA was extracted as above. Reverse transcription was performed with Transcriptor First Strand cDNA Synthesis Kit (Roche, Nutley, N.J.). The primers (right: 5′-GCA GCT CGA CTG GAG TGA C-3′ (SEQ ID NO: 1) and left: 5′-CATCATGGCCATCAAAACAAT-3′(SEQ ID NO: 2)) and probe (cat. no. 04689135001) were designed with Universal Probe Library (Roche, Nutley, N.J.). Real-time PCR was performed using TaqMan PCR Master Mix at 50° C. for 2 min, 95° C. for 10 min and then 50 cycles (95° C. for 15 sec, 60° C. for 1 min). The data was collected on a Roche Light Cycler 480. The amounts of CYP24 were normalized using cyclophilin D as a housekeeping gene with comparative CT method.
The RNA from HaCaT keratinocytes treated with 1α,20-dihydroxycholecalciferol was isolated and RT PCR run as described in Example 1.

Data set [3] relates to neonatal human epidermal keratinocytes (HEKn). Briefly: [3H]-thymidine proliferation assay in HEKn. In kind it is cell-based. Particulars: 24 h, 0.1 nM. Here is the method:
Neonatal human epidermal keratinocytes (HEKn) were isolated form neonatal foreskin of African-American donors and grown in HKM (Lonza) medium supplemented with HKGF (Lonza) as described previously (8a,c). For the cell proliferation assay the cells from a third passage were seeded into 24-well plates (TPP, Switzerland) and grown until reaching ˜80% confluence. Secosteroids were dissolved in ethanol and then diluted in keratinocyte medium containing 0.1% BSA (Sigma). Cells were incubated for 24 h then 1 μCi/ml [^3H]-thymidine (Moravek Biochemicals Inc., Brea, Calif.) was added and cells were incubated for further 4 h. Excess of unbound thymidine was removed by washing cells with PBS. Cells were precipitated with 10% trichloroacetic acid (TCA) (Sigma) and then the precipitate dissolved with 1N NaOH. The solution was collected in vials and thymidine incorporation was determined in liquid scintillation counter (Beckman LS 6000, Santa Clara, Calif.).

In the next data set the target is bovine CYP11A1 (Bos taurus, UniProt P00189). Briefly: Metabolism by CYP11A1 (P450scc) in phospholipid vesicles. It counts as in vitro ADME. Conditions: first 2 min of incubation. Here is the method: (§2) Adrenodoxin was added last to initiate the reaction.
(§3) Products and remaining substrate were extracted with dichloromethane, and measured by reverse phase HPLC as described before (12, 13b).

The next data set deals with human CYP27B1 (Homo sapiens, UniProt O15528). Briefly: Metabolism by CYP27B1 in phospholipid vesicles. In kind it is in vitro ADME. Conditions: up to 10 min. How it is done:
as §2, §3

For data set [4], the system named is involucrin. Briefly: Real-time RT PCR involucrin mRNA, normal human epidermal keratinocytes. It counts as cell-based. Conditions: 10^−7 M, time dependant. Here is the method: RNA was extracted using an Absolutely RNA RT-PCR Miniprep Kit (Stratagene, La Jolla, Calif.). Real time PCR and reverse transcription products were purchased from Applied Biosystems, Foster City, Calif. Reverse transcription was performed using Taqman® Reverse Transcription Reagents. The following PCR products were used: cytokeratin 14: Hs00265033_m1, involucrin: Hs00846307_s1, CYP27A1: Hs00168003_ml, CYP27B1: Hs00168017_ml, 18SrRNA: Hs99999901_s1. The reaction was performed with Taqman® Universal PCR Master Mix; data were collected on an ABI Prism 7700 and analyzed on Sequence Detector 1.9.1. Specific gene amounts were related to 18SrRNA by comparative CT method.

The subject of data set [5] is involucrin. Briefly: Involucrin protein fluorescence, normal human epidermal keratinocytes. It counts as cell-based. Particulars: 10^−7 M. How it is done: Cells were seeded in 6-well Lab-Tek II chamber slides (Nalge Nunc, Inc., Naperville, Ill.). Cells were pre-incubated in Epilife medium with HKGS overnight and then stimulated with 20-hydroxycholecalciferol in Epilife medium with HKGS for 24 hours and then fixed with 4% paraformaldehyde in PBS for 10 minutes. The cells were permeabilized with 0.2% Triton-X 100 in PBS for 5 minutes and blocked with 1% bovine serum albumine (BSA; in PBS) for 30 minutes. The cells were incubated consecutively with mouse anti-human involucrin antibody (Novocastra, Newcastle upon Tyne, UK) for 3 hours, anti-mouse-fluorescein isothiocyanate (FITC) conjugate (Novocastra, Newcastle upon Tyne, UK) for 1 hour in buffer containing 1% BSA in PBS. The slides were extensively washed with PBS between stainings and mounted with Vectashield mounting medium with propidium iodide (Vector Laboratories, Burlingame, Calif.). Slides not incubated with primary antibody were used as background controls. Slides were viewed with NIKON Eclipse TE300 microscope (Melville, N.Y.).
Data are shown as mean±SD (n=10-20). **, p<0.01. ***, p<0.001.

A further data set deals with human melanoma cells. Put plainly: Melanoma colony formation (crystal violet, 7 days). Conditions: colonies over 0.2 mm and 0.5 mm. It counts as cell-based. The source says: Inhibitory effects of 20(OH)D2 (FIGS. 47A-47B) in comparison to 1,25(OH)2D3 (FIGS. 47C-47D) on the ability of human melanoma cells to form colonies was examined.
For data set [6], the system named is immortalized normal epidermal melanocytes (PIG1 line). Put plainly: Proliferation of PIG1 melanocytes. It counts as cell-based. Particulars: PIG1, 72 h.
For data set [7], the system named is neonatal epidermal melanocytes. Briefly: Proliferation of neonatal epidermal melanocytes. It counts as cell-based. Particulars: 48 hours.
In data set [8] the test system is SKMEL-188 human melanoma cells. Put plainly: Proliferation (DNA synthesis) of SKMEL-188. Particulars: SKMEL-188, 72 h. It counts as cell-based. Here is the method: as §1
(§4) HaCaT keratinocytes were an incubated for 48 h (FIG. 48A) or 72 h (FIG. 48B) in the presence of graded concentrations of 20(OH)D2 and/or 1,25(OH)2D3. […] Data are shown as mean±SD (n 3); *, p<0.05; **, p<0.01.

Data set [9] deals with AbC1 hamster melanoma cells. Briefly: Proliferation (DNA synthesis) of AbC1. It counts as cell-based. Particulars: AbC1, 72 h. Here is the method: as §1, §4
Substrate in data set [10]: C=C1CC[C@H](O)C/C1=C/C=C1\CCC[C@]2(C)[C@@H]([C@H](C)CCCC(C)C)CC[C@@H]12
Briefly: cells, lysate or membranes named. Conditions: other: cyclodextrin; 37.0 °C.

Chain of human CYP27B1 (O15528 whole entry): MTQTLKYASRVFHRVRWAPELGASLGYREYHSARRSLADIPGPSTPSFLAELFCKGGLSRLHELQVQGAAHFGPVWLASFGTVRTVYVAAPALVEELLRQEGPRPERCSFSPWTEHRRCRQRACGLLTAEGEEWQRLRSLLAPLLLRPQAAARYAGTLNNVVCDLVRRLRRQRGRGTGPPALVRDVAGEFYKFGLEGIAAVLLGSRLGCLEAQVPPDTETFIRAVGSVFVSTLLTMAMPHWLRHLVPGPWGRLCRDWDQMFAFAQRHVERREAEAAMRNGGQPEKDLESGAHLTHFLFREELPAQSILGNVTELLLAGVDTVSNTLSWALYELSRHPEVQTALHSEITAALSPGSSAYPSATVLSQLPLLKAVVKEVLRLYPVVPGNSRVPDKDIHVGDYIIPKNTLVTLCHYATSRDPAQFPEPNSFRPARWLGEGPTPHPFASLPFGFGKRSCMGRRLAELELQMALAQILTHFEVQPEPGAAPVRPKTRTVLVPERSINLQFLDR
Chain of bovine CYP11A1 (P00189 40-520): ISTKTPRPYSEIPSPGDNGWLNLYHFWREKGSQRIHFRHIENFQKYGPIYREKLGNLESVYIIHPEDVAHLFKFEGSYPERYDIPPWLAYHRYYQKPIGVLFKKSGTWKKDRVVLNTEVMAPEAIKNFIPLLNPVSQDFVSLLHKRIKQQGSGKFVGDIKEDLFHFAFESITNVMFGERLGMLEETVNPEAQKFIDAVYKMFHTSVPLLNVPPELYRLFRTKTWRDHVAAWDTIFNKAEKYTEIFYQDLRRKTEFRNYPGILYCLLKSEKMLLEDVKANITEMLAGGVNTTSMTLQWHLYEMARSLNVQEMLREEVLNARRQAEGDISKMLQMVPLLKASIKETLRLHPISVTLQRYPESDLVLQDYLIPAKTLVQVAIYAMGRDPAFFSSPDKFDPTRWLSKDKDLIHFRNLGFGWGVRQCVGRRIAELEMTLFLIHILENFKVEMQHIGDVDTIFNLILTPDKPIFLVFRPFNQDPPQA

For the molecule `C=C1C(=CC=C2CCCC3(C)C2CCC3C(C)(O)CCCC(C)C)CC(O)CC1O` (stereo not drawn) [1α,20-dihydroxycholecalciferol, (5Z,7E)-9,10-secocholesta-5,7,10(19)-triene-1α,3β,20-triol], the “decrease in DNA synthesis” value in the data set on HaCaT keratinocytes [1] (0.1 nM) is 30%; in the data set with HaCaT keratinocytes [1] (10 nM), 50%. For the same molecule, the “keratinocyte proliferation compared with 1α,25-dihydroxycholecalciferol” value with HaCaT keratinocytes [1] (HaCaT, 48 h) is on record as “inhibit keratinocyte proliferation more potently than the control compound”. The “number of viable cells (sulforhodamine B)” value with HaCaT keratinocytes [2] is “caused a decrease in number of viable cells”. Also, the “CYP24 mRNA level” value is given as “Modest stimulation” with CYP24 (0.1 μM, 6 h); “the effect was lost by 24 h” in the data set on CYP24 (0.1 μM, 24 h); “markedly increased the Cyp 24 mRNA level” in the data set on CYP24 (1 μM, 6 h and 24 h).

Consider `C=C1CCC(O)CC1=CC=C1CCCC2(C)C1CCC2C(C)(O)CCCC(C)C` (stereo not drawn) [20R(OH)D3, (5Z,7E)-9,10-secocholesta-5,7,10(19)-triene-3β,20R-diol], for which the “thymidine incorporation into DNA” value in [3] is reported as “slightly stimulated thymidine incorporation into DNA”. At bovine CYP11A1, the substrate consumed was determined as 58%. For the same molecule, at human CYP27B1, the “metabolism by CYP27B1” value is given as “metabolized to a single product at comparable initial rates”.

With “(5Z,7E,22E)-9,10-secoergosta-5,7,9(10),22-tetraene-3β,20-diol [20(OH)D2]”, in the data set on involucrin [4], the involucrin gene expression entry is given as “induced time dependant involucrin gene expression”. Also, in the data set on involucrin [5], the involucrin protein expression result is “increased expression of involucrin protein”. For the same molecule, the “melanoma cell colony formation compared with 1,25(OH)2D3” value in the data set with human melanoma cells is reported as “Inhibits Melanoma Cell Colony Formation Better than 1.25 OH 2D3”. Moreover, the proliferation result in [6], in data set [7], in data set [8] and in data set [9] was “Dose dependent inhibition of the proliferation” each time.

B1: CYP27A1 (Homo sapiens) (protein)
chain: ALPSDKATGAPGAGPGVRRRQRSLEEIPRLGQLRFFFQLFVQGYALQLHQLQVLYKAKYGPMWMSYLGPQMHVNLASAPLLEQVMRQEGKYPVRNDMELWKEHRDQHDLTYGPFTTEGHHWYQLRQALNQRLLKPAEAALYTDAFNEVIDDFMTRLDQLRAESASGNQVSDMAQLFYYFALEAICYILFEKRIGCLQRSIPEDTVTFVRSIGLMFQNSLYATFLPKWTRPVLPFWKRYLDGWNAIFSFGKKLIDEKLEDMEAQLQAAGPDGIQVSGYLHFLLASGQLSPREAMGSLPELLMAGVDTTSNTLTWALYHLSKDPEIQEALHEEVVGVVPAGQVPQHKDFAHMPLLKAVLKETLRLYPVVPTNSRIIEKEIEVDGFLFPKNTQFVFCHYVVSRDPTAFSEPESFQPHRWLRNSQPATPRIQHPFGSVPFGYGVRACLGRRIAELEMQLLLARLIQKYKVVLAPETGELKSVARIVLVPNKKVGLQFLQRQC
As for B1, the Michaelis constant (Km) in data set [10] turned out to be 10.7 ± 3.1 µM.

In general, Km refers to the concentration of substrate that gives half-maximal velocity.
